Tested on: moderate-to-severe chronic spontaneous urticaria (CSU)
Assay: Phase 2 CSU study: itch severity score over 7 days (ISS7)
Format: in vivo, human
Description: The study comprises a 12 week, randomized, double-blind, placebo-controlled, multi-center, dose-ranging efficacy and safety phase, followed by a 40 week open label extension (OLE) phase (see FIG. 1). The study consists of three phases and an optional OLE phase. […] Clinically, CSU is characterized by the spontaneous and recurrent appearance of pruritic hives. The proposed primary endpoints were the UAS7 at Week 12 in EU and EU reference countries and the ISS7 in the US. Regardless of where a participant was from, all assessments were the same. The UAS7 score is a composite score containing both the HSS7 and the ISS7. This allowed a global assessment of the two key components of urticaria: hives and itch. […] The UAS is a validated PRO measure. […] The daily UAS scores range from 0 to 6 point/day. […] Patients were to complete the UAS using the e-diary. […] The following secondary endpoints were to be analyzed using the same approach as for the primary endpoint: • Change from baseline in UAS7 at Week 4 • Change from baseline in UAS7 at Week 12 (for US and US reference countries) • Change from baseline in ISS7 at Week 12 (except US and US reference countries) • Change from baseline in HSS7 at Week 12

[1] = Week 2, 400 mg BID, Omalizumab-Naïve
[2] = Week 2, 400 mg BID, Prior Omalizumab Use
[3] = Week 2, 400 mg QPM, Omalizumab-Naïve
[4] = Week 2, 400 mg QPM, Prior Omalizumab Use
[5] = Week 2, 400 mg TID, Omalizumab-Naïve
[6] = Week 2, 400 mg TID, Prior Omalizumab Use
[7] = Week 3, 400 mg BID, Omalizumab-Naïve
[8] = Week 3, 400 mg BID, Prior Omalizumab Use
[9] = Week 3, 400 mg QPM, Omalizumab-Naïve
[10] = Week 3, 400 mg QPM, Prior Omalizumab Use
[11] = Week 3, 400 mg TID, Omalizumab-Naïve
[12] = Week 3, 400 mg TID, Prior Omalizumab Use
[13] = Week 4, 400 mg BID, Omalizumab-Naïve
[14] = Week 4, 400 mg BID, Prior Omalizumab Use
[15] = Week 4, 400 mg QPM, Omalizumab-Naïve
[16] = Week 4, 400 mg QPM, Prior Omalizumab Use
[17] = Week 4, 400 mg TID, Omalizumab-Naïve

SMILES: CC(C)(C=C(C#N)C(=O)N1CCC[C@@H](n2nc(-c3ccc(Oc4ccccc4)cc3F)c3c(N)ncnc32)C1)N1CCN(C2COC2)CC1 [rilzabrutinib, (R)-2-[3-[4-amino-3-(2-fluoro-4-phenoxy-phenyl)pyrazolo[3,4-d]pyrimidin-1-yl]piperidine-1-carbonyl]-4-methyl-4-[4-(oxetan-3-yl)piperazin-1-yl]pent-2-enenitrile]
- ISS7 Percent change from baseline Mean (SD) [1]: −34.40 (31.27) %
- ISS7 Percent change from baseline Median [1]: −25.06%
- ISS7 Change from baseline Mean (SD) [2]: −7.00 (7.04)
- ISS7 Change from baseline Median [2]: −5.50
- ISS7 Mean (SD) [2]: 10.83 (6.85)
- ISS7 Median [2]: 13.50
- ISS7 Percent change from baseline Mean (SD) [2]: −38.76 (40.94) %
- ISS7 Percent change from baseline Median [2]: −28.17%
- ISS7 Change from baseline Mean (SD) [3]: −3.84 (4.75)
- ISS7 Change from baseline Median [3]: −3.00
- ISS7 Median [3]: 12.00
- ISS7 Percent change from baseline Mean (SD) [3]: −22.08 (27.52) %
- ISS7 Percent change from baseline Median [3]: −17.11%
- ISS7 Change from baseline Mean (SD) [4]: −12.00 (NC)
- ISS7 Change from baseline Median [4]: −12.00
- ISS7 Mean (SD) [4]: 9.00 (NC)
- ISS7 Median [4]: 9.00
- ISS7 Percent change from baseline Mean (SD) [4]: −57.14 (NC) %
- ISS7 Percent change from baseline Median [4]: −57.14%
- ISS7 Change from baseline Mean (SD) [5]: −7.29 (6.09)
- ISS7 Change from baseline Median [5]: −7.00
- ISS7 Mean (SD) [5]: 8.40 (5.82)
- ISS7 Median [5]: 8.00
- ISS7 Percent change from baseline Mean (SD) [5]: −46.12 (36.57) %
- ISS7 Percent change from baseline Median [5]: −46.89%
- ISS7 Mean (SD) [6]: 5.50 (6.95)
- ISS7 Median [6]: 4.00
- ISS7 Percent change from baseline Mean (SD) [6]: −69.74 (33.53) %
- ISS7 Percent change from baseline Median [6]: −77.08%
- ISS7 Change from baseline Mean (SD) [7]: −6.29 (5.74)
- ISS7 Change from baseline Median [7]: 5.00
- ISS7 Mean (SD) [7]: 9.16 (6.09)
- ISS7 Median [7]: 9.00
- ISS7 Percent change from baseline Mean (SD) [7]: −40.77 (35.75) %
- ISS7 Percent change from baseline Median [7]: −26.67%
- ISS7 Change from baseline Mean (SD) [8]: −8.31 (8.28)
- ISS7 Change from baseline Median [8]: −9.00
- ISS7 Mean (SD) [8]: 9.53 (7.26)
- ISS7 Percent change from baseline Mean (SD) [8]: −44.35 (43.62) %
- ISS7 Percent change from baseline Median [8]: −47.22%
- ISS7 Change from baseline Mean (SD) [9]: −4.77 (4.84)
- ISS7 Change from baseline Median [9]: −3.67
- ISS7 Mean (SD) [9]: 11.60 (4.68)
- ISS7 Percent change from baseline Mean (SD) [9]: −27.79 (26.72) %
- ISS7 Percent change from baseline Median [9]: −23.81%
- ISS7 Change from baseline Mean (SD) [10]: −12.00 (NC)
- ISS7 Change from baseline Median [10]: −12.00
- ISS7 Mean (SD) [10]: 9.00 (NC)
- ISS7 Median [10]: 9.00
- ISS7 Percent change from baseline Mean (SD) [10]: −57.14 (NC) %
- ISS7 Percent change from baseline Median [10]: −57.14%
- ISS7 Change from baseline Mean (SD) [11]: −7.34 (6.48)
- ISS7 Change from baseline Median [11]: −7.00
- ISS7 Mean (SD) [11]: 8.34 (5.42)
- ISS7 Median [11]: 8.40
- ISS7 Percent change from baseline Mean (SD) [11]: −49.02 (33.06) %
- ISS7 Percent change from baseline Median [11]: −48.53%
- ISS7 Mean (SD) [12]: 5.50 (5.50)
- ISS7 Median [12]: 5.00
- ISS7 Percent change from baseline Mean (SD) [12]: −66.98 (26.87) %
- ISS7 Percent change from baseline Median [12]: −64.58%
- ISS7 Change from baseline Mean (SD) [13]: −6.94 (6.13)
- ISS7 Change from baseline Median [13]: −5.83
- ISS7 Mean (SD) [13]: 8.32 (6.02)
- ISS7 Median [13]: 7.00
- ISS7 Percent change from baseline Mean (SD) [13]: −44.87 (37.61) %
- ISS7 Percent change from baseline Median [13]: −41.67%
- ISS7 Change from baseline Mean (SD) [14]: −11.80 (8.35)
- ISS7 Change from baseline Median [14]: −14.00
- ISS7 Mean (SD) [14]: 6.80 (8.53)
- ISS7 Median [14]: 1.00
- ISS7 Percent change from baseline Mean (SD) [14]: −64.22 (45.05) %
- ISS7 Percent change from baseline Median [14]: −93.33%
- ISS7 Change from baseline Mean (SD) [15]: −4.99 (5.13)
- ISS7 Change from baseline Median [15]: −4.00
- ISS7 Mean (SD) [15]: 11.39 (4.79)
- ISS7 Percent change from baseline Mean (SD) [15]: −28.81 (27.96) %
- ISS7 Percent change from baseline Median [15]: −23.81%
- ISS7 Change from baseline Mean (SD) [16]: −13.00 (NC)
- ISS7 Change from baseline Median [16]: −13.00
- ISS7 Mean (SD) [16]: 8.00 (NC)
- ISS7 Median [16]: 8.00
- ISS7 Percent change from baseline Mean (SD) [16]: −61.90 (NC) %
- ISS7 Percent change from baseline Median [16]: −61.90%
- ISS7 Change from baseline Mean (SD) [17]: −8.30 (5.13)
- ISS7 Change from baseline Median [17]: −8.00
- ISS7 Mean (SD) [17]: 7.79 (5.03)
- ISS7 Median [17]: 7.50
- ISS7 Percent change from baseline Mean (SD) [17]: −51.09 (29.31) %
- ISS7 Percent change from baseline Median [17]: −50.00%
- ISS7 Change from baseline Mean (SD) (Week 4, 400 mg TID, Prior Omalizumab Use): −10.83 (7.32)
